From patent US7514254B2, “Plant-derived alkaline alpha-galactosidase” (The State of Israel, Ministry of Agriculture & Rural …, priority 1998, dated 2009)
One block for each molecule: values may come before it.

Assays:
[1] = molecular target: T1, melon (Cucumis melo) fruit alkaline alpha-galactosidase Form I (Cucumis melo, UniProt Q84NI7); experiment: Substrate kinetics (Lineweaver-Burk) of alkaline alpha-galactosidase Form I
T1 sequence (Q84NI7 1-754): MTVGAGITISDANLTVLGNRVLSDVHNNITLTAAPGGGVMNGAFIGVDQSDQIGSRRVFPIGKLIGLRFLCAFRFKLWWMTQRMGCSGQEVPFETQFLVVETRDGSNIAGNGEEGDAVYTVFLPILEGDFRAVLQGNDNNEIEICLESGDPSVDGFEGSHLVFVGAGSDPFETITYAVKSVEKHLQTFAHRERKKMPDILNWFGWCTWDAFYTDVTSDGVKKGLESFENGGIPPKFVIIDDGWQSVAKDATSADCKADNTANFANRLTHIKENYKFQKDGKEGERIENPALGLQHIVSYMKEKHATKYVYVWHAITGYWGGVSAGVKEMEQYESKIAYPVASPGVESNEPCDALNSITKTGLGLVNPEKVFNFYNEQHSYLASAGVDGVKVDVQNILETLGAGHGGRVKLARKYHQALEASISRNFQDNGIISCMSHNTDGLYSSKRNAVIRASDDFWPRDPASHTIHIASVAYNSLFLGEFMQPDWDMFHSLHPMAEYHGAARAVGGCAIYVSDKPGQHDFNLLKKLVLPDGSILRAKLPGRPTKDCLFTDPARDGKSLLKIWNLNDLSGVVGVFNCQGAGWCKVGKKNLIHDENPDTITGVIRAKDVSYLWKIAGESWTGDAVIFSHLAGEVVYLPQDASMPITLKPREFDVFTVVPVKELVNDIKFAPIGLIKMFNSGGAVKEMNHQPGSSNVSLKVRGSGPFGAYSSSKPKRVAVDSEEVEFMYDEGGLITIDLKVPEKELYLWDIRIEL
Method: (§1) For routine analysis and monitoring the activity in the purification steps, alpha-galactosidase was assayed as described by Smart and Pharr (“Characterization of alpha-galactosidase from cucumber leaves”, Plant Physiology, 66:731-734, 1980), using p-nitrophenyl alpha-galactoside (pNPG) as substrate. Reaction was initiated by adding 50 μl enzyme aliquot to either 200 μl 100 mM pH 5.5 McIlvaine buffer or 100 mM pH 7.5 HEPES buffer, containing 5 mM pNPG at 35 C. The reaction was terminated after 10 min by adding 1 ml of 5% (w/v) Na2CO3 and activity expressed as nmol nitrophenol per min as measured at 410 nm. […] The assay was started by adding 50 μl enzyme preparation at 35 C and terminated after 10 to 20 min by 2 min boiling.
(§2) The fractions from the DEAE-Sepharose chromatography which were active at pH 7.5 were pooled and dialyzed against buffer A for 12 h prior to loading onto an HPLC ion exchange chromatography column (Mono-Q HR 5/5, Pharmacia, Uppsala, Sweden), previously equilibrated with buffer A. Bound proteins were eluted with a linear gradient of 0.1 to 0.45 M NaCl and the active fractions were detected using pNPG as substrate at pH 7.5 as described above. […] For the further purification of Form II the active fractions of the peak II were chromatographed on hydrophobic interaction chromatography. The fractions were pooled, brought to 1 M (NH4)2SO4 and loaded on to a hydrophobic interaction column (phenyl-Sepharose CL-4B, 0.5×12 cm, Pharmacia, Uppsala, Sweden) previously equilibrated with buffer A containing 1 M (NH4)2SO4. The protein was eluted with a reverse stepwise gradient from 1 to 0 M (NH4)2SO4 with 50 mM intervals in buffer A. Fractions containing the activity peak were collected and dialyzed for 12 h against buffer A and the dialysate was concentrated by reverse dialysis against solid sucrose. The enzyme, partially purified by hydrophobic interaction chromatography, was used for the characterization of Form II. The active fractions from the hydrophobic interaction column were further purified. Active fractions were separated electrophoretically using a Mini Prep Cell (Bio-Rad Laboratories, Hercules, Calif.) for discontinuous native-PAGE with 7% polyacrylamide, according to manufacturer's instructions. Fractions (0.25 ml/fraction) were assayed at pH 7.5 with pNPG as substrate for the activity. The active fractions were pooled, concentrated by Vivaspin Concentrator (Vivascience LTD, Lincoln, England), and run in a 8% SDS-PAGE. Proteins in the SDS-PAGE were identified using Coomassie Blue staining.
(§3) Therefore, the active fractions from the Mono-Q column were used for the characterization of Form I. In addition, the Form I enzyme was further purified, as described in the following section.

[2] = molecular target: T2, melon (Cucumis melo) fruit alkaline alpha-galactosidase Form II (Cucumis melo, UniProt Q84NI6); experiment: Inhibition of alkaline alpha-galactosidase Form II by alternative substrate (galactose release); format: biochemical, muskmelon (Cucumis melo L. cv C-8); settings: read-out: inhibition by excess raffinose (galactose release)
T2 construct: native 102 kDa, denatured 92 kDa; assayed at pH 7.5
T2 sequence (Q84NI6 1-772): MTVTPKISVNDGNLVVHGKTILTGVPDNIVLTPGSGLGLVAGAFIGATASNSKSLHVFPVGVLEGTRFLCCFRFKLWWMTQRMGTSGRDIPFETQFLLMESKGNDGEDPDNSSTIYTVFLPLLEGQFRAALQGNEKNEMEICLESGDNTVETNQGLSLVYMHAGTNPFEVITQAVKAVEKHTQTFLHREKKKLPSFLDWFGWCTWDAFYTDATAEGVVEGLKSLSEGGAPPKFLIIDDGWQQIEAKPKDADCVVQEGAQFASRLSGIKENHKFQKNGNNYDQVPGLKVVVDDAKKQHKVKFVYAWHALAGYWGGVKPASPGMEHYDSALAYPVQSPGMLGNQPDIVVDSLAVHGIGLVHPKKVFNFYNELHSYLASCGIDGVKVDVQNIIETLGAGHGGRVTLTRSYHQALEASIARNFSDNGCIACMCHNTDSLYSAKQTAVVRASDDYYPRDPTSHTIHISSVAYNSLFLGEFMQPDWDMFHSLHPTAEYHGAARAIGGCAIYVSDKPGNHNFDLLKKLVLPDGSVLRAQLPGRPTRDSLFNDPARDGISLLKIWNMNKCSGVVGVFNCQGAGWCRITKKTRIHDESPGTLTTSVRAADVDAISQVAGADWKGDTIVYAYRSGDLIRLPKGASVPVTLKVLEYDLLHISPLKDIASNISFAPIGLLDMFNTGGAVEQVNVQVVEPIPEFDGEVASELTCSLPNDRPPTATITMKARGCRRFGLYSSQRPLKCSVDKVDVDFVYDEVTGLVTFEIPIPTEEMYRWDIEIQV
Method: as §1

[3] = molecular target: T2, melon (Cucumis melo) fruit alkaline alpha-galactosidase Form II; experiment: Substrate kinetics (Lineweaver-Burk) of alkaline alpha-galactosidase Form II; format: biochemical, muskmelon (Cucumis melo L. cv C-8)
Method: as §1, §2

[4] = test system: Pseudomonas fluorescens H-601 alpha-galactosidase; settings: Hashimoto et al. 1991; relative Km values; cited from earlier work
[5] = test system: Escherichia coli K12 alpha-galactosidase; settings: Schmid and Schmitt 1976; cited from earlier work
[6] = test system: Cucurbita pepo leaf alkaline alpha-galactosidase ("LIV" enzyme); settings: Gaudreault and Webb; alkaline form; cited from earlier work
[7] = test system: Cucurbita pepo leaf alkaline alpha-galactosidase ("LIV" enzyme); experiment: Substrate kinetics of Cucurbita pepo leaf alkaline alpha-galactosidase (Gaudreault and Webb); format: biochemical; settings: calculated for prior art "LIV" enzyme of Gaudreault and Webb
[8] = test system: melon (Cucumis melo) fruit acid form alpha-galactosidase; experiment: Substrate kinetics (Lineweaver-Burk) of acid alpha-galactosidase; format: biochemical, muskmelon (Cucumis melo L. cv C-8)
Method: (§4) For routine analysis and monitoring the activity in the purification steps, alpha-galactosidase was assayed as described by Smart and Pharr (“Characterization of alpha-galactosidase from cucumber leaves”, Plant Physiology, 66:731-734, 1980), using p-nitrophenyl alpha-galactoside (pNPG) as substrate. […] The reaction was terminated after 10 min by adding 1 ml of 5% (w/v) Na2CO3 and activity expressed as nmol nitrophenol per min as measured at 410 nm. […] The assay was started by adding 50 μl enzyme preparation at 35 C and terminated after 10 to 20 min by 2 min boiling. […] For the partial purification of the acid form of alpha-galactosidase the fractions active at pH 5.5 were pooled and concentrated by reverse dialysis against solid sucrose. […] The active fractions were then desalted by dialysis against buffer A for 12 hours with two changes of the buffer. This enzyme fraction was used for the characterization of the acidic form of alpha-galactosidase. […] The substrate specificity of the alpha-galactosidases was tested with pNPG, stachyose, raffinose, melibiose or guar gum (Sigma).

[9] = molecular target: T1, melon (Cucumis melo) fruit alkaline alpha-galactosidase Form I; experiment: Inhibition of alkaline alpha-galactosidase Form I by galactose, pNPG as substrate; format: biochemical, muskmelon (Cucumis melo L. cv C-8); parameters: native 84 kDa, denatured 79 kDa; assayed at pH 7.5
Method: as §1, §2, §3

[10] = molecular target: T2, melon (Cucumis melo) fruit alkaline alpha-galactosidase Form II; experiment: Inhibition of alkaline alpha-galactosidase Form II by galactose, pNPG as substrate; format: biochemical, muskmelon (Cucumis melo L. cv C-8)
Method: as §1
as §2, with “Active fractions were separated electrophoretically using a Mini Prep Cell (Bio-Rad Laboratories, Hercules, Calif.) for discontinuous native-PAGE with 7% polyacrylamide, according to manufacturer's instructions. Fractions (0.25 ml/fraction) were assayed at pH 7.5 with pNPG as substrate for the activity. The active fractions were pooled, concentrated by Vivaspin Concentrator (Vivascience LTD, Lincoln, England), and run in a 8% SDS-PAGE. Proteins in the SDS-PAGE were identified using Coomassie Blue staining.” left out

[11] = test system: Cucurbita pepo leaf alkaline alpha-galactosidase; settings: 6.4 mM galactose; 7.5 mM pNPG, pH 7.5; cited from earlier work
[12] = test system: melon (Cucumis melo) fruit acid form alpha-galactosidase; experiment: Inhibition of acid alpha-galactosidase by galactose, pNPG as substrate; format: biochemical, muskmelon (Cucumis melo L. cv C-8)
Method: as §4

Vmax/Km ratio [1]: 0.37 | Km ([1]; Lineweaver-Burk): < 5 mM | Vmax ([1]; Lineweaver-Burk): 0.56 μmol mg^−1 protein min^−1 | inhibition at 80000 µM [2]: 35% | Vmax/Km ratio [3]: 0.01 | Vmax ([3]; Lineweaver-Burk): 0.28 μmol mg^−1 protein min^−1 | Vmax/Km ratio [7]: 0.0039 | Vmax/Km ratio [8]: 0.17 | Km ([8]; Lineweaver-Burk): 4.2 mM | Vmax ([8]; Lineweaver-Burk): 0.71 μmol mg^−1 protein min^−1
Structure (SMILES): OC[C@H]1O[C@H](OC[C@H]2O[C@H](O[C@]3(CO)O[C@H](CO)[C@@H](O)[C@@H]3O)[C@H](O)[C@@H](O)[C@@H]2O)[C@H](O)[C@@H](O)[C@H]1O [Raffinose, O-alpha-D-galactopyranosyl-(1-6)-O-alpha-D-glucopyranosyl-(1-2)-beta-D-fructofuranoside]
Km [4]: 17 mM | Km [5]: 60 mM | Km [6]: 36.4 mM

inhibition at 8000 µM ([9]; 8 mM galactose, 10 mM pNPG, alkaline Form I): 8% | inhibition type (galactose) ([9]; alkaline Form I, Lineweaver-Burk): competitive | Ki ([9]; alkaline Form I, competitive, Lineweaver-Burk): 13000 µM | inhibition of catalytic activity by galactose (in words) ([9]; alkaline alpha galactosidase of the invention, FIG. 4D-F): no inhibition of catalytic activity | inhibition at 8000 µM ([10]; 8 mM galactose, 10 mM pNPG, read-out: reduction in activity by galactose): 70% | inhibition type (galactose) ([10]; Lineweaver-Burk): competitive | Ki ([10]; competitive, Lineweaver-Burk): 1300 µM | reduction in activity by galactose ([12]; 8 mM galactose, 10 mM pNPG): 65% | inhibition type (galactose) ([12]; Lineweaver-Burk): competitive | Ki ([12]; competitive, Lineweaver-Burk): 60 µM
Structure (SMILES): OC[C@H]1O[C@H](O)[C@H](O)[C@@H](O)[C@H]1O [galactose, alpha-D-galactose]
reduction of reaction velocity by galactose [11]: 50%
